Test results: PMC7216583 (Parasites & Vectors, 2020)
Structures can show the parent of a compound that is named as a salt.

test system: Toxoplasma gondii RH-2F tachyzoites; test: microbe, parasite or virus in culture; conditions: 72 h, read-out: Parasite inhibition (%) mean

Row | SMILES | inhibition of growth at 5 µM [%]
1 | C#CCN[C@@H]1CCc2ccccc21 [Rasagiline mesylate] | 13.3

same assay, conditions: 72 h, read-out: Parasite inhibition (%) mean, preliminary screen of compound library, mean

Row | SMILES | inhibition of growth at 5 µM [%]
2 | CN(C)[C@@H]1C(O)=C(C(N)=O)C(=O)[C@@]2(O)C(=O)C3=C(O)c4c(O)cccc4[C@@](C)(O)[C@H]3[C@H](O)[C@@H]12 [Oxytetracycline (Terramycin)] | 33.5
3 | C=CC(=O)N1CCC[C@@H](n2nc(-c3ccc(Oc4ccccc4)cc3)c3c(N)ncnc32)C1 [PCI-32765 (Ibrutinib)] | -0.8
4 | C=CC(=O)Nc1ccc2ncnc(Nc3cccc(Br)c3)c2c1 [PD168393] | -0.1
5 | O=C(Nc1cccnc1)N1CCC(Cc2cccc(Oc3ccc(C(F)(F)F)cn3)c2)CC1 [PF-3845] | 6.7
6 | CN(C)C1CCN(C(=O)c2ccc(NC(=O)Nc3ccc(-c4nc(N5CCOCC5)nc(N5CCOCC5)n4)cc3)cc2)CC1 [PF-05212384 (PKI-587)] | 40.5
7 | Nc1ncnc2c1c(-c1cnc3[nH]ccc3c1)nn2C1CCCC1 [PP-121] | 36.8
8 | C[C@@]12C[C@@]3(O)O[C@@H](O1)[C@]1(COC(=O)c4ccccc4)[C@H]3C[C@@]12O[C@@H]1O[C@H](CO)[C@@H](O)[C@H](O)[C@H]1O [Paeoniflorin] | 0.7
9 | N=C(N)c1ccc(OCCCCCOc2ccc(C(=N)N)cc2)cc1 [Pentamidine HCl] | 23.6
10 | O=C1c2ccccc2C(=O)C1c1ccccc1 [Phenindione (Rectadione)] | -1.7
11 | CC[C@@H]1/C=C(\C)C[C@H](C)C[C@H](OC)[C@H]2O[C@@](O)(C(=O)C(=O)N3CCCC[C@H]3C(=O)O[C@H](/C(C)=C/[C@@H]3CC[C@H](Cl)[C@H](OC)C3)[C@H](C)[C@@H](O)CC1=O)[C@H](C)C[C@@H]2OC [Pimecrolimus] | -12.9
12 | CC(C)N(CCNC(=O)CN1CCCC1=O)C(C)C [Pramiracetam] | 24.1
13 | C[C@]12C=CC(=O)C=C1CC[C@@H]1[C@H]2C(=O)C[C@@]2(C)[C@H]1CC[C@@]2(O)C(=O)CO [Prednisone (Adasone)] | 33.8
14 | CCCNC(C)C(=O)Nc1ccccc1C (centres unmarked) [Prilocaine] | -21.8
15 | Cc1c(C(=O)NN2CCCCC2)nn(-c2ccc(Cl)cc2Cl)c1-c1ccc(Cl)cc1 [Rimonabant (SR141716)] | 5.1
16 | O=C(CCCCCCNC(=O)c1cnc(N(c2ccccc2)c2ccccc2)nc1)NO [Rocilinostat (ACY-1215)] | 2.9
17 | CC(C)c1nc(N(C)S(C)(=O)=O)nc(-c2ccc(F)cc2)c1/C=C/[C@@H](O)C[C@@H](O)CC(=O)O [Rosuvastatin calcium (Crestor)] | -0.1

Row | SMILES | inhibition of growth at 5 µM [%]
18 | C[C@H]1CCO[C@H]2Cn3cc(C(=O)NCc4ccc(F)cc4F)c(=O)c(O)c3C(=O)N21 [S/GSK1349572 (GSK1349572)] | 0.2
19 | COc1ccc(NS(=O)(=O)c2sc3ccc(Cl)cc3c2C)cc1N1CCNCC1 [SB 271046] | -0.6
20 | CC1CCN(CC[C@H]2CCCN2S(=O)(=O)c2cccc(O)c2)CC1 [SB-269970 HCl] | -10.7
21 | O=S(=O)(c1ccccc1)c1cnc2c(N3CCNCC3)cccc2c1 [SB-742457] | 0.6
22 | CC1(C)CC(=O)c2c(C(F)(F)F)nn(-c3ccc(C(N)=O)c(N[C@H]4CC[C@H](O)CC4)c3)c2C1 [SNX-2112] | 9.9
23 | Cc1cc(C)c(/C=C2\C(=O)Nc3ccccc32)[nH]1 [Semaxanib (SU5416)] | -78.8
24 | N[C@@H](CC(=O)N1CCn2c(nnc2C(F)(F)F)C1)Cc1cc(F)c(F)cc1F [Sitagliptin phosphate monohydrate] | 1.1
25 | O=C(O)C(O)Cc1ccc(O)c(O)c1 (centres unmarked) [Sodium Danshensu] | 2.2
26 | O=S(=O)(O)Oc1ccc(C(c2ccc(OS(=O)(=O)O)cc2)c2ccccn2)cc1 [Sodium Picosulfate] | 0.3
27 | CCCC(=O)[O-].[Na+] [Sodium butyrate] | 23.1
28 | OC[C@@H](O)[C@@H](O)[C@H](O)[C@@H](O)CO [Sorbitol (Glucitol)] | -66.9
29 | CC(=O)NS(=O)(=O)c1ccc(N)cc1 [Sulfacetamide Sodium] | 0.9
30 | CNCC(O)c1ccc(O)cc1 (centres unmarked) [Synephrine HCl] | 3.7
31 | CCc1nc(-c2cccc(C)c2)c(-c2ccnc(NC(=O)c3ccccc3)c2)s1 [TAK 715] | 22.5
32 | Cc1cnc(Nc2ccc(OCCN3CCCC3)cc2)nc1Nc1cccc(S(=O)(=O)NC(C)(C)C)c1 [TG101348 (SAR302503)] | 8.5
33 | CCOC(=O)c1ccc(C#Cc2ccc3c(c2)C(C)(C)CCS3)nc1 [Tazarotene (Avage)] | -0.7

same assay, conditions: 72 h, read-out: Parasite inhibition (%) mean, preliminary screen, mean

Row | SMILES | inhibition of growth at 5 µM [%]
34 | CCN(CC)CC#CCOC(=O)C(O)(c1ccccc1)C1CCCCC1 (centres unmarked) [Oxybutynin (Ditropan)] | -3.2
35 | O=C(NOCC(O)CO)c1cc(Br)c(F)c(F)c1Nc1ccc(I)cc1F (centres unmarked) [PD318088] | -12.9
36 | O=C(NOC[C@H](O)CO)c1ccc(F)c(F)c1Nc1ccc(I)cc1F [PD0325901] | -6.9
37 | CCCN1CCO[C@@H]2c3cc(O)ccc3OC[C@@H]21 [PD 128907 HCl] | 1.8
38 | COc1ccccc1S(=O)(=O)Nc1ccc2c(c1)CN(C)C(=O)N2 [PFI-1] | 2.2
39 | CCOc1cc2ncc(C#N)c(Nc3ccc(F)c(Cl)c3)c2cc1NC(=O)/C=C/CN(C)C [Pelitinib (EKB-569)] | -28.8
40 | Cc1ccc(C(=O)Nc2ccc(CN3CCN(C)CC3)c(C(F)(F)F)c2)cc1C#Cc1cnc2cccnn12 [Ponatinib (AP24534)] | 49.3
41 | CN(C)C(=O)Oc1ccc[n+](C)c1 [Pyridostigmine Bromide (Mestinon)] | -6.5
42 | COc1cc(OC)c(/C=C/S(=O)(=O)Cc2ccc(OC)c(NCC(=O)O)c2)c(OC)c1 [Rigosertib (ON-01910)] | 0.1
43 | CCN(C)C(=O)Oc1cccc([C@H](C)N(C)C)c1 [Rivastigmine tartrate (Exelon)] | 22.8
44 | CC[C@H](CO)Nc1nc(NCc2ccccc2)c2ncn(C(C)C)c2n1 [Roscovitine (Seliciclib, CYC202)] | 12.2
45 | CNCc1ccc(-c2[nH]c3cc(F)cc4c3c2CCNC4=O)cc1 [Rucaparib (AG-014699 , PF-01367338)] | 26.1
46 | NC(=O)c1cn(Cc2c(F)cccc2F)nn1 [Rufinamide (Banzel)] | 1.7
47 | Cn1cc(-c2ccc3nnc(Sc4ccc5ncccc5c4)n3n2)cn1 [SGX-523] | 45.5
48 | Cc1cccc(Nc2nc(-c3ccncc3)cs2)c1 [STF-62247] | 15.2
49 | N#C[C@@H]1C[C@@H]2C[C@H]2N1C(=O)[C@@H](N)C12CC3CC(CC(O)(C3)C1)C2 [Saxagliptin (BMS-477118,Onglyza)] | 9.7
50 | C[C@H](Cc1cc2c(c(C(N)=O)c1)N(CCCO)CC2)NCCOc1ccccc1OCC(F)(F)F [Silodosin (Rapaflo)] | 47.9
51 | CNC(=O)c1cc(Oc2ccc(NC(=O)Nc3ccc(Cl)c(C(F)(F)F)c3)cc2)ccn1 [Sorafenib (Nexavar)] | 55.5
52 | Nc1nc(N)c2nc(-c3cccc(O)c3)c(-c3cccc(O)c3)nc2n1 [TG100-115] | 9.5
53 | Clc1ccccc1C(c1ccccc1)(c1ccccc1)n1cccn1 [TRAM-34] | 2.6
